{"source": "patent US10377743B2", "about": "“Inhibitors of RAS and methods of use thereof” (Araxes Pharma LLC, priority 2016, dated 2019)"}
{"target": "T1, KRAS G12C 1-169, his-tagged protein, GDP-loaded (Homo sapiens, UniProt P01116, G12C)", "T1 construct": "KRAS G12C 1-169, his-tagged protein, GDP-loaded", "assay": "Biochemical assay: covalent binding (modification %) to KRAS G12C by mass spectrometry", "conditions": "2 hour incubation period, 8 μM compound (compounds 21-92)", "experimental": "Test compounds were prepared as 10 mM stock solutions in DMSO (Fisher cat# BP-231-100). KRAS G12C 1-169, his-tagged protein, GDP-loaded was diluted to 2 μM or 0.5 μM in buffer (20 mM Hepes, 150 mM NaCl, 1 mM MgCl2). Compounds were tested for activity as follows:\nCompounds were diluted to 50× final test concentration in DMSO in 96-well storage plates. Compound stock solutions were vortexed before use and observed carefully for any sign of precipitation. Dilutions were as follow: • For 100 μM final compound concentration, compounds were diluted to 5000 μM (5 μL 10 mM compound stock+5 μL DMSO and mixed well by pipetting. • For 30 μM final compound concentration, compounds were diluted to 1500 μM (3 μL 10 mM compound stock+17 μL DMSO) and mixed well by pipetting. • For 10 μM final compound concentration, compounds were diluted to 500 μM (2 μL 10 mM compound stock+38 μL DMSO) and mixed well by pipetting. 49 μL of the stock protein solution was added to each well of a 96-well PCR plate (Fisher cat#1423027). 1 μl of the diluted 50× compounds were added to appropriate wells in the PCR plate using 12-channel pipettor. Reactions were mixed carefully and thoroughly by pipetting up/down with a 200 μL multi-channel pipettor. The plate was sealed well with aluminum plate seal, and stored in drawer at room temperature for 10 minutes, 30 minutes, 2 hours or 24 hours. 5 μL of 2% formic acid (Fisher cat# A117) in de-ionized H2O was then added to each well followed by mixing with a pipette. The plate was then resealed with aluminum seal and stored on dry ice until analyzed as described below.\nThe above described assays were analyzed by mass spectrometry according to one of the following two procedures:\nThe MS instrument is set to positive polarity, 2 GHz resolution, and low mass (1700) mode and allowed to equilibrate for 30 minutes. The instrument is then calibrated, switched to acquisition mode and the appropriate method loaded.\nAfter another 30 minute equilibration time, a blank batch (i.e., buffer) is run to ensure equipment is operating properly. The samples are thawed at 37° C. for 10 minutes, briefly centrifuged, and transfer to the bench top. Wells A1 and H12 are spiked with 1 μL 500 μM internal standard peptide, and the plates centrifuged at 2000×g for 5 minutes. The method is then run and masses of each individual well recorded.\nThe masses (for which integration data is desired) for each well are pasted into the platemap and exported from the analysis. Masses for the internal standards are exported as well. The data at 50 ppm is extracted for the +19 charge state, and identity of well A1 is assigned using the internal standard spike and integrated. Peak data is exported as a TOF list and the above steps are repeated individually, for the +20, 21, 22, 23, 24, and 25 charge states.\nThe masses and peak intensities of KRAS G12C protein species were measured using a Dionex RSLCnano system (Thermo Scientific) connected to a Q Exactive Plus mass spectrometer (Thermo Scientific).\n[…] of sample was each loaded onto a Aeris™ 3.6 μm WIDEPORE C4 200 Å, LC Column 50×2.1 mm column maintained at 40° C. at a flow rate of 600 μL/min with 20% Solvent A (0.1% formic acid in H2O) and 80% Solvent B (0.1% formic acid in acetonitrile). The liquid chromatography conditions were 20% solvent B for 1 minute, 20% to 60% solvent B for 1.5 minutes, 60% to 90% solvent for 0.5 minute, 90% solvent B for 0.2 minute, 90% to 20% solvent B for 0.2 minute, and then equilibrated for 1.6 minute before the following sample injection. The flow rate was maintained at 600 μL/min throughout the sample analysis.\nThe mass spectrometer was operated in profile mode at a resolution of 17500, 5 microscans, using 50 msec max injection time and an AGC target of 1×10^6, and a full mass range from 800-1850 m/z was recorded. The HCD trapping gas was optimized for maximum sensitivity for intact proteins. […]"}
{"smiles": "C=CC(=O)N1CC(N2Cc3ccc(-c4cc(O)ccc4Cl)cc3CC2=O)C1", "note": "[Compound 40, 2-(1-acryloylazetidin-3-yl)-6-(2-chloro-5-hydroxyphenyl)-1,2-dihydroisoquinolin-3(4H)-one]", "Binding %": "+++ (+++ indicates binding activity greater than 50%)"}
{"smiles": "C=CC(=O)N1CC(N2Cc3ccc(-c4c(O)cccc4F)cc3CC2=O)C1", "note": "[Compound 41, 2-(1-acryloylazetidin-3-yl)-6-(2-fluoro-6-hydroxyphenyl)-1,2-dihydroisoquinolin-3(4H)-one]", "Binding %": "++ (++ indicates binding activity from 10 to 50%)"}
{"smiles": "C=CC(=O)N1CC(N2Cc3sc(-c4c(C)ccc5[nH]ncc45)cc3C2=O)C1", "note": "[Compound 42, 5-(1-acryloylazetidin-3-yl)-2-(5-methyl-1H-indazol-4-yl)-5,6-dihydro-4H-thieno[2,3-c]pyrrol-4-one]", "Binding %": "++ (++ indicates binding activity from 10 to 50%)"}
{"smiles": "C=CC(=O)N1CC(N2Cc3c(O)cc(-c4cc(O)cc5ccccc45)cc3C2=O)C1", "note": "[Compound 43, 2-(1-acryloylazetidin-3-yl)-4-hydroxy-6-(3-hydroxynaphthalen-1-yl)isoindolin-1-one]", "Binding %": "+++ (+++ indicates binding activity greater than 50%)"}
{"smiles": "C=CC(=O)N1CC(N2Cc3c(O)cc(-c4c(C)ccc5[nH]ncc45)cc3C2=O)C1", "note": "[Compound 44, 2-(1-acryloylazetidin-3-yl)-4-hydroxy-6-(5-methyl-1H-indazol-4-yl)isoindolin-1-one]", "Binding %": "++ (++ indicates binding activity from 10 to 50%)"}
{"smiles": "C=CC(=O)N1CC(N2Cc3ccc(Oc4ccccc4)cc3C2=O)C1", "note": "[Compound 45, 2-(1-acryloylazetidin-3-yl)-6-phenoxyisoindolin-1-one]", "Binding %": "+ (+ indicates binding activity up to 10%)"}
{"smiles": "C=CC(=O)N1CC(N2Cc3ccc(-c4cccc5[nH]cnc45)cc3C2=O)C1", "note": "[Compound 46, 2-(1-acryloylazetidin-3-yl)-6-(1H-benzo[d]imidazol-4-yl)isoindolin-1-one]", "Binding %": "+ (+ indicates binding activity up to 10%)"}
{"smiles": "C=CC(=O)N1CC(N2Cc3ccc(-c4ccccc4C(N)=O)cc3C2=O)C1", "note": "[Compound 47, 2-(2-(1-acryloylazetidin-3-yl)-3-oxoisoindolin-5-yl)benzamide]", "Binding %": "+ (+ indicates binding activity up to 10%)"}
{"smiles": "C=CC(=O)N1CC(N2Cc3ccc(-c4cccc5[nH]ncc45)cc3C2=O)C1", "note": "[Compound 48, 2-(1-acryloylazetidin-3-yl)-6-(1H-indazol-4-yl)isoindolin-1-one]", "Binding %": "+ (+ indicates binding activity up to 10%)"}
{"smiles": "C=CC(=O)N1CC(N2Cc3ccc(-c4cc(O)cc(Cl)c4)cc3C2=O)C1", "note": "[Compound 49, 2-(1-acryloylazetidin-3-yl)-6-(3-chloro-5-hydroxyphenyl)isoindolin-1-one]", "Binding %": "++ (++ indicates binding activity from 10 to 50%)"}
{"smiles": "C=CC(=O)N1CC(N2Cc3ccc(-c4cccc(C(N)=O)c4)cc3C2=O)C1", "note": "[Compound 50, 3-(2-(1-acryloylazetidin-3-yl)-3-oxoisoindolin-5-yl)benzamide]", "Binding %": "+ (+ indicates binding activity up to 10%)"}
{"smiles": "C=CC(=O)N1CC(N2Cc3ccc(-c4cc(O)cc5ccccc45)cc3C2)C1", "note": "[Compound 51, 1-(3-(5-(3-hydroxynaphthalen-1-yl)isoindolin-2-yl)azetidin-1-yl)prop-2-en-1-one]", "Binding %": "+ (+ indicates binding activity up to 10%)"}
{"smiles": "C=CC(=O)N1CC(N2Cc3ccc(-c4ccc(NC)cc4)cc3C2=O)C1", "note": "[Compound 52, 2-(1-acryloylazetidin-3-yl)-6-(4-(methylamino)phenyl)isoindolin-1-one]", "Binding %": "+ (+ indicates binding activity up to 10%)"}
{"smiles": "C=CC(=O)N1CC(N2Cc3ccc(-c4cccc5cn[nH]c45)cc3C2=O)C1", "note": "[Compound 53, 2-(1-acryloylazetidin-3-yl)-6-(1H-indazol-7-yl)isoindolin-1-one]", "Binding %": "+ (+ indicates binding activity up to 10%)"}
{"smiles": "C=CC(=O)N1CC(N2Cc3ccc(-c4cccc(O)n4)cc3C2=O)C1", "note": "[Compound 54, 2-(1-acryloylazetidin-3-yl)-6-(6-hydroxypyridin-2-yl)isoindolin-1-one]", "Binding %": "+ (+ indicates binding activity up to 10%)"}
{"smiles": "C=CC(=O)N1CC(N2Cc3ccc(-c4cccc(C#N)c4)cc3C2=O)C1", "note": "[Compound 55, 3-(2-(1-acryloylazetidin-3-yl)-3-oxoisoindolin-5-yl)benzonitrile]", "Binding %": "+ (+ indicates binding activity up to 10%)"}
{"smiles": "C=CC(=O)N1CC(N2Cc3ccc(-c4c(C)ccc5[nH]ncc45)cc3C2)C1", "note": "[Compound 56, 1-(3-(5-(5-methyl-1H-indazol-4-yl)isoindolin-2-yl)azetidin-1-yl)prop-2-en-1-one]", "Binding %": "+ (+ indicates binding activity up to 10%)"}
{"smiles": "C=CC(=O)N1CC(N2Cc3ccc(N4CCc5ccccc54)cc3C2=O)C1", "note": "[Compound 57, 2-(1-acryloylazetidin-3-yl)-6-(indolin-1-yl)isoindolin-1-one]", "Binding %": "+ (+ indicates binding activity up to 10%)"}
{"smiles": "C=CC(=O)N1CC(N2Cc3ccc(-c4cccc(NC)c4)cc3C2=O)C1", "note": "[Compound 58, 2-(1-acryloylazetidin-3-yl)-6-(3-(methylamino)phenyl)isoindolin-1-one]", "Binding %": "+ (+ indicates binding activity up to 10%)"}
{"smiles": "C=CC(=O)N1CC(N2Cc3ccc(N4CCC(O)C4)cc3C2=O)C1", "note": "(stereo not drawn) [Compound 59, 2-(1-acryloylazetidin-3-yl)-6-(3-hydroxypyrrolidin-1-yl)isoindolin-1-one]", "Binding %": "+ (+ indicates binding activity up to 10%)"}
{"smiles": "C=CC(=O)N1CC(N2Cc3ccc(-c4ccccc4NC)cc3C2=O)C1", "note": "[Compound 60, 2-(1-acryloylazetidin-3-yl)-6-(2-(methylamino)phenyl)isoindolin-1-one]", "Binding %": "+ (+ indicates binding activity up to 10%)"}
{"smiles": "C=CC(=O)N1CC(N2Cc3ccc(-c4ccccc4C#N)cc3C2=O)C1", "note": "[Compound 61, 2-(2-(1-acryloylazetidin-3-yl)-3-oxoisoindolin-5-yl)benzonitrile]", "Binding %": "+ (+ indicates binding activity up to 10%)"}
{"smiles": "C=CC(=O)N1CC(N2Cc3ccc(N4CCC(N(C)C)C4)cc3C2=O)C1", "note": "(stereo not drawn) [Compound 62, 2-(1-acryloylazetidin-3-yl)-6-(3-(dimethylamino)pyrrolidin-1-yl)isoindolin-1-one]", "Binding %": "+ (+ indicates binding activity up to 10%)"}
{"smiles": "C=CC(=O)N1CC(N2Cc3cc(C(N)=O)c(-c4cc(O)cc5ccccc45)cc3C2=O)C1", "note": "[Compound 63, 2-(1-acryloylazetidin-3-yl)-6-(3-hydroxynaphthalen-1-yl)-1-oxoisoindoline-5-carboxamide]", "Binding %": "++ (++ indicates binding activity from 10 to 50%)"}
{"smiles": "C=CC(=O)N1CC(N2Cc3cc(C#N)c(-c4cc(O)cc5ccccc45)cc3C2=O)C1", "note": "[Compound 64, 2-(1-acryloylazetidin-3-yl)-6-(3-hydroxynaphthalen-1-yl)-1-oxoisoindoline-5-carbonitrile]", "Binding %": "+++ (+++ indicates binding activity greater than 50%)"}
{"smiles": "C=CC(=O)N1CC(N2Cc3ccc(-c4c(C)ccc5[nH]nc(N)c45)cc3C2=O)C1", "note": "[Compound 65, 2-(1-acryloylazetidin-3-yl)-6-(3-amino-5-methyl-1H-indazol-4-yl)isoindolin-1-one]", "Binding %": "+++ (+++ indicates binding activity greater than 50%)"}
{"smiles": "C=CC(=O)N1CC(N2Cc3ccc(-c4cn[nH]c4)cc3C2=O)C1", "note": "[Compound 66, 2-(1-acryloylazetidin-3-yl)-6-(1H-pyrazol-4-yl)isoindolin-1-one]", "Binding %": "+ (+ indicates binding activity up to 10%)"}
